# Test results: PMC9686516, “Pharmacokinetic Characteristics of Nebulized Colistimethate Sodium Using Two Different Types of Nebulizers in Critically Ill Patients with Ventilator-Associated Respiratory Infections” (Antibiotics, 2022)
# Like-named read-outs stand apart in the source and are kept apart here. Where a SMILES comes first, the peptide text is derived from it. Bridges are numbered along the chain shown (N, C = ends). [ ]: non-standard residue; d: D form. The star is where a group is joined. X1 = CC[C@H](C)CCCCC(=O)*; Dab = NCC[C@H](N)C(=O)O
# Experiments:
# Klebsiella pneumoniae = conditions: in vitro experiments, typical plasma maximum concentrations; cited from earlier work
# [1] = 1 mIU of CMS via VMN; similar ICU setting; median (IQR); cited from earlier work
# Method: In this single-center study, we compared the pharmacokinetic properties of formed colistin in the ELF and the plasma compartment when inhaled CMS, at a typical dose, was administered either via a VMN or a generic JN. […] Indeed, the median total (as opposed to unbound) AUC0–24 in the ELF for the two modalities were 86.2 and 91.5 mg/L*h for VMN and JN, respectively. […] However, the ELF exposure was similar, despite the higher dose, probably due to a higher clearance from the lung compartment in our study, as evidenced by the ... || Contrarily, our results were only marginally compatible with the results of Boisson et al. and Gkoufa et al.. In the former study, the range of colistin concentration in the ELF following a 2 mIU inhalation spanned from 9.53 to 1137 mg/L [14], while it was between 0.8 mg/L and 57.9 mg/L in the present study. In the latter study, the exact values were not reported, however in the figured data it was shown that after an inhalation of 3 to 5 mIU of CMS, formed colistin concentrations were in the range of 10^2 to 10^3 mg/L [16]. Again, it is not known whether these differences we ...
# [2] = Colistin pharmacokinetics in epithelial lining fluid (ELF) after nebulized CMS in ventilated VARI patients; type: in vivo, human; conditions: 2 mIU CMS inhaled; for AUC0–8 h: ELF (mini-BAL, urea-corrected), no systemic CMS, HPLC-fluorescence; for AUC0–8 h / Volume of distribution/ fraction of dose absorbed / Clearance/fraction of dose absorbed / Cmax: NCA; for AUC0–8 h / Volume of distribution/ fraction of dose absorbed / Clearance/fraction of dose absorbed / Cmax / AUC0–24 / Cmin / Tmax / level at 1 h / level at 4 h / level at 6 h / level at 8 h: median (IQR); for Ccolistin over 2 mg/L, frequency of patients / Ccolistin over 4 mg/L, frequency of patients / Volume of distribution/ fraction of dose absorbed / Clearance/fraction of dose absorbed / Cmax / AUC0–24 / Cmin / Tmax / level at 1 h / level at 4 h / level at 6 h / level at 8 h: ELF; for Volume of distribution/ fraction of dose absorbed: dose/(λ × AUCinf); for Clearance/fraction of dose absorbed: dose/AUCinf; for AUC0–24: calculated as AUCinf × 3 (thrice daily), total colistin; for level at 1 h / level at 4 h / level at 6 h / level at 8 h / Kp: human, inhaled or intranasal, 2 mIU; for level at 1 h / level at 4 h / level at 6 h / level at 8 h: epithelial lining fluid (ELF), read-out: Ccolistin,ELF; for level at 1 h: 1 h post-nebulization; for level at 4 h: 4 h post-nebulization; for level at 6 h: 6 h post-nebulization; for level at 8 h: 8 h post-nebulization; for Kp: epithelial lining fluid (ELF)/plasma, ELF/plasma mean concentration ratio, mean (SD), SD
# Source text: The study population consisted of 24 critically ill adult patients, admitted to the intensive care unit of the First Department of Pulmonology of the National and Kapodistrian University of Athens between June 2014 and November 2017. All patients were intubated and mechanically ventilated, and received inhaled CMS as part of their treatment for VAP or VAT caused by Gram-negative pathogens. Subjects were studied around the first dose of nebulized treatment, which always preceded intravenous treatment, to avoid confounding by colistin (or CMS) reaching the ELF via the systemic circulation. We excluded patients that received a dose different to the institution’s standard of 2 million international units (mIU) (~160 mg) of CMS and patients who were planned to receive intravenous colistin within 8 h of nebulization initiation.
# A dose of 2 mIU of CMS (Colistin®, Norma Hellas, Athens, Greece), corresponding to approximately 160 mg CMS or 68 mg colistin-base activity, was nebulized over a 10–30 min period via either VMN (Aeroneb Solo with Aeroneb Pro controller, Aerogen, Galway, Ireland) or generic JN. This was not a randomized trial, and the nebulizer selection was exclusively a matter of availability of VMN consumables in the ICU at the time. The intended dose was dissolved in 4 mL of normal saline 0.9%. The nebulizer was placed at the inspiratory limb of the ventilator circuit, at 15 cm from the Y-piece, and the heat and moisture exchanger was removed. During nebulization, the patients were sedated and ventilated using assist volume controlled mode, with tidal volume set at 8 mL/kg of ideal body weight, a constant squared-wave inspiratory flow, a positive end expiratory pressure (PEEP) of less than or equal to 10 cm H2O, an inspiratory to expiratory time ratio equal to 1, an inspiratory pause of 10%, and a respiratory rate set at 15/min [31].
# […] The catheter was inserted through the endotracheal tube. The lavage was performed with instillation of 2 syringes of 20 mL sterile normal saline at room temperature through the catheter. The aspirate from the first syringe was considered representative of bronchial washing and was, therefore, discarded. The aspirate from the second syringe was collected and centrifuged in frigid centrifuge (3500× g for 10 min at 4 °C) immediately (<2 min) to avoid falsely elevated levels of urea in BAL [34] and CMS hydrolysis to formed colistin. The supernatant liquid was stored in plastic micro test tubes (Safe-lock; Eppendorf AG; Hamburg, Germany) and frozen at –80 °C, until analysis.
# Colistin concentrations in plasma (Ccolistin,plasma) and epithelial lining fluid (Ccolistin,ELF) were measured through high performance liquid chromatography (HPLC)-fluorescence analysis.
# The samples were rapidly centrifuged, and plasma and BAL supernatant were separated and kept frozen (−80 °C) before analysis, as previously described. An HPLC-RF assay was used for colistin concentration measurements in plasma and BAL fluid samples, based on the method of Li et al., as modified by Markou et al. and Ratjen et al.. Briefly, netilmicin was used as the internal standard and the method consisted of a protein precipitation step with trifluoracetic acid (TFA), followed by colistin derivatization with 9-fluorenylmethyl chloroformate on a solid phase extraction C18 cartridge. The eluted fluid was dried under vacuum and the solid residue was reconstituted in mobile phase for subsequent reversed-phase HPLC with fluorescence detection (excitation: 260 nm; emission: 316 nm). The analytical column was a Phenomenex Luna C18, 3 μm, 50 mm × 3 mm with 100 Å particle size, while the mobile phase consisted of ACN/THF/H2O (80/7.7/12.3%) with a flow rate of 0.5 mL/min. The injection volume was 20 μL. The method was linear at a concentration range of 0.10–4.8 mg/L (R^2 = 0.999). […]
structure (smiles),measurement,setting,value
CC[C@H](C)CCCCC(=O)N[C@@H](CCN)C(=O)N[C@H](C(=O)N[C@@H](CCN)C(=O)N[C@H]1CCNC(=O)[C@H]([C@@H](C)O)NC(=O)[C@H](CCN)NC(=O)[C@H](CCN)NC(=O)[C@H](CC(C)C)NC(=O)[C@@H](CC(C)C)NC(=O)[C@H](CCN)NC1=O)[C@@H](C)O [colistin] (X1-[Dab]T[Dab][Dab][Dab][dL]L[Dab][Dab]T; lactam 4-C),fAUC/MIC linked to 2-log killing,Klebsiella pneumoniae,25
same,Cmax in ELF,[1],6.7 (4.8–10.1) mg/L
same,AUC0–8 h,"[2]; JN, n = 6",30.5 (26.0–36.8) mg/L∙h
same,AUC0–8 h,"[2]; VMN, n = 18",28.7 (15.1–68.1) mg/L∙h
same,"Ccolistin over 2 mg/L, frequency of patients","[2]; 60 min, JN, n = 6",16.7%
same,"Ccolistin over 4 mg/L, frequency of patients","[2]; 60 min, JN, n = 6",16.7%
same,"Ccolistin over 2 mg/L, frequency of patients","[2]; 240 min, JN, n = 6",100%
same,"Ccolistin over 4 mg/L, frequency of patients","[2]; 240 min, JN, n = 6",83.3%
same,"Ccolistin over 2 mg/L, frequency of patients","[2]; 240 min, VMN, n = 18",50%
same,"Ccolistin over 4 mg/L, frequency of patients","[2]; 240 min, VMN, n = 18",27.8%
same,"Ccolistin over 2 mg/L, frequency of patients","[2]; 360 min, JN, n = 6",83.3%
same,"Ccolistin over 4 mg/L, frequency of patients","[2]; 360 min, JN, n = 6",33.3%
same,"Ccolistin over 2 mg/L, frequency of patients","[2]; 360 min, VMN, n = 18",88.9%
same,"Ccolistin over 4 mg/L, frequency of patients","[2]; 360 min, VMN, n = 18",83.3%
same,"Ccolistin over 2 mg/L, frequency of patients","[2]; 480 min, JN, n = 6",0%
same,"Ccolistin over 4 mg/L, frequency of patients","[2]; 480 min, JN, n = 6",0%
same,"Ccolistin over 2 mg/L, frequency of patients","[2]; 480 min, VMN, n = 18",41.2%
same,"Ccolistin over 4 mg/L, frequency of patients","[2]; 480 min, VMN, n = 18",17.6%
same,Volume of distribution/ fraction of dose absorbed,"[2]; JN, n = 6",4.5 (3.5–5.1) L
same,Clearance/fraction of dose absorbed,"[2]; JN, n = 6",1.8 (1.5–2.1) L/h
same,Cmax,"[2]; JN, n = 6",7.4 (6.2–10.3) mg/L
same,AUC0–24,"[2]; JN, n = 6",91.5 (78.1–110.3) mg/L∙h
same,Cmin,"[2]; JN, n = 6",1.1 (0.9–1.2) mg/L
same,Tmax,"[2]; JN, n = 6",4.3 (3.5–4.3) h
same,Volume of distribution/ fraction of dose absorbed,"[2]; VMN, n = 18",1.7 (0.8–5.2) L
same,Clearance/fraction of dose absorbed,"[2]; VMN, n = 18",1.4 (0.8–3.6) L/h
same,Cmax,"[2]; VMN, n = 18",10.4 (4.7–22.6) mg/L
same,AUC0–24,"[2]; VMN, n = 18",86.2 (46.0–185.9) mg/L∙h
same,Cmin,"[2]; VMN, n = 18",0.4 (0.1–0.8) mg/L
same,Tmax,"[2]; VMN, n = 18",6.5 (6.3–6.6) h
same,level at 1 h,"[2]; JN, n = 6",1200 ng/mL
same,level at 1 h,"[2]; VMN, n = 18",700 ng/mL
same,level at 4 h,"[2]; JN, n = 6",6420 ng/mL
same,level at 4 h,"[2]; VMN, n = 18",2100 ng/mL
same,level at 6 h,"[2]; JN, n = 6",3300 ng/mL
same,level at 6 h,"[2]; VMN, n = 18",8600 ng/mL
same,level at 8 h,"[2]; JN, n = 6",1300 ng/mL
same,level at 8 h,"[2]; VMN, n = 18",1420 ng/mL
same,Kp,"[2]; JN, n = 6",4.8
same,Kp,"[2]; VMN, n = 18",5.5
